Data published in patent US20260125421A1, “ANTIVIRAL COMPOUNDS” (Hoffmann-La Roche Inc., priority 2022, published 2026).

Key:
Experiment in all cases: biochemical
MERS-CoV 3CL^pro = MERS-CoV 3CL^pro (Middle East respiratory syndrome-related coronavirus, UniProt K9N7C7)
SARS-CoV 3CL^pro = SARS-CoV 3CL^pro (Severe acute respiratory syndrome coronavirus, UniProt P0C6X7)
SARS-CoV-2 3CL^pro = target: T1, SARS-CoV-2 3CL^pro (Severe acute respiratory syndrome coronavirus 2, UniProt P0DTD1)
T1 construct: […]; made in house; host or cells: Escherichia coli

HCoV-229E 3CL^pro = target: T2, HCoV-229E 3CL^pro (Human coronavirus 229E, UniProt P0C6X1)
T2 construct: […]; made in house; host or cells: E. coli BL21 (DE3)
T2 sequence (P0C6X1 2966-3267): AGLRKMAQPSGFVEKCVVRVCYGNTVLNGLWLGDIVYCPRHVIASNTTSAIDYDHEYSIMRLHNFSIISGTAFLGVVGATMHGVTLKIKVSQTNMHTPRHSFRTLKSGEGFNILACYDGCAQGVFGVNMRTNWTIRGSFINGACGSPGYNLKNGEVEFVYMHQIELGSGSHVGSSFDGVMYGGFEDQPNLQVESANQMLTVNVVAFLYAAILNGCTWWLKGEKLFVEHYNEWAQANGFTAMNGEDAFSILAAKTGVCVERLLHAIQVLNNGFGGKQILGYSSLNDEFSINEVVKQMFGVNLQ

MERS-CoV 3CL^pro, sequence (K9N7C7 3248-3553): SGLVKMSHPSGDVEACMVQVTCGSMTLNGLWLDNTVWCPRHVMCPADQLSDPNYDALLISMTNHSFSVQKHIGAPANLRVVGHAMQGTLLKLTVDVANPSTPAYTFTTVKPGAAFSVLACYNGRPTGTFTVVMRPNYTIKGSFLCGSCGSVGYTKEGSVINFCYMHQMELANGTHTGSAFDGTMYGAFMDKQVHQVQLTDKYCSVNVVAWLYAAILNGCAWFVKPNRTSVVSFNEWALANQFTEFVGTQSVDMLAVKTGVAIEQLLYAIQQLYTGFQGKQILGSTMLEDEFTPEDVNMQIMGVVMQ

SMILES | IC50 (MERS-CoV 3CL^pro) | IC50 (SARS-CoV 3CL^pro) | IC50 (SARS-CoV-2 3CL^pro) | IC50 (HCoV-229E 3CL^pro)
CC1(C)C[C@@H](CN(NC(=O)[C@@H]2[C@H]3CCC[C@H]3CN2C(=O)[C@@H](NC(=O)[C@H](F)Cl)C(C)(C)C)C(=O)[C@@H](F)Cl)C(=O)N1 [Example 16] | 6160 nM | 33 nM | 22 nM | > 10000 nM
CC(C)(C)[C@H](NC(=O)[C@@H]1CC1(F)F)C(=O)N1C[C@@H]2CCC[C@@H]2[C@H]1C(=O)NN(C[C@@H]1C(=O)N[C@@H]2C[C@H]12)C(=O)[C@@H](F)Cl [Example 40, (1S)-N-[(1S)-1-[(3S,3aS,6aR)-3-[[[(2S)-2-chloro-2-fluoro-acetyl]-[[(1R,4R,5R)-3-oxo-2-azabicyclo[3.1.0]hexan-4-yl]methyl]amino]carbamoyl]-3,3a,4,5,6,6a-hexahydro-1H-cyclopenta[c]pyrrole-2-carbonyl]-2,2-dimethyl-propyl]-2,2-difluoro-cyclopropanecarboxamide] | 538 nM | 122 nM | 64 nM | 257 nM
CC[C@H](C)[C@H](NC(=O)C1(F)CC1)C(=O)N1C[C@H]2[C@@H]([C@H]1C(=O)NN(C[C@H]1CC(C)(C)NC1=O)C(=O)[C@H](F)Cl)C2(C)C [Example 1b, N-[(1S,2S)-1-[(1R,2S,5S)-2-[[[(2R)-2-chloro-2-fluoro-acetyl]-[[(3R)-5,5-dimethyl-2-oxo-pyrrolidin-3-yl]methyl]amino]carbamoyl]-6,6-dimethyl-3-azabicyclo[3.1.0]hexane-3-carbonyl]-2-methyl-butyl]-1-fluoro-cyclopropanecarboxamide] | 234 nM | 18 nM | 13 nM | 131 nM
CC1(C)C[C@@H](CN(NC(=O)[C@@H]2[C@H]3CCC[C@H]3CN2C(=O)[C@@H](NC(=O)[C@@H](F)Cl)C(C)(C)C)C(=O)[C@H](F)Cl)C(=O)N1 [Example 15, (2S)-N-[(1S)-1-[(3S,3aS,6aR)-3-[[[(2R)-2-chloro-2-fluoro-acetyl]-[[(3S)-5,5-dimethyl-2-oxo-pyrrolidin-3-yl]methyl]amino]carbamoyl]-3,3a,4,5,6,6a-hexahydro-1H-cyclopenta[c]pyrrole-2-carbonyl]-2,2-dimethyl-propyl]-2-chloro-2-fluoro-acetamide] | 488 nM | 12 nM | 11 nM | 589 nM
C[C@@H]1C[C@@H](CN(NC(=O)[C@@H]2[C@H]3CCC[C@H]3CN2C(=O)[C@@H](NC(=O)[C@@H]2CC2(F)F)C(C)(C)C)C(=O)[C@@H](F)Cl)C(=O)N1 [Example 30, (1S)-N-[(1S)-1-[(3S,3aS,6aR)-3-[[[(2S)-2-chloro-2-fluoro-acetyl]-[[(3S,5R)-5-methyl-2-oxo-pyrrolidin-3-yl]methyl]amino]carbamoyl]-3,3a,4,5,6,6a-hexahydro-1H-cyclopenta[c]pyrrole-2-carbonyl]-2,2-dimethyl-propyl]-2,2-difluoro-cyclopropanecarboxamide] | 91 nM | 11 nM | 8 nM | 66 nM
CC1(C)C[C@@H](CN(NC(=O)[C@@H]2[C@@H]3[C@H](CN2C(=O)[C@@H](NC(=O)[C@H](F)Cl)C(C)(C)C)C3(C)C)C(=O)[C@H](F)Cl)C(=O)N1 [Example 20] | 1070 nM | 32 nM | 24 nM | 2020 nM
CC1(C)C[C@H](CN(NC(=O)[C@@H]2[C@H]3CCC[C@H]3CN2C(=O)[C@@H](NC(=O)[C@@H]2CC2(F)F)C(C)(C)C)C(=O)[C@@H](F)Cl)C(=O)N1 [Example 2b, (1S)—N-[(1S)-1-[(3S,3aS,6aR)-3-[[[(2S)-2-chloro-2-fluoro-acetyl]-[[(3R)-5,5-dimethyl-2-oxo-pyrrolidin-3-yl]methyl]amino]carbamoyl]-3,3a,4,5,6,6a-hexahydro-1H-cyclopenta[c]pyrrole-2-carbonyl]-2,2-dimethyl-propyl]-2,2-difluoro-cyclopropanecarboxamide] | > 10000 nM | 1720 nM | 918 nM | > 10000 nM
C[C@H]1C[C@H](CN(NC(=O)[C@@H]2[C@H]3CCC[C@H]3CN2C(=O)[C@@H](NC(=O)[C@@H]2CC2(F)F)C(C)(C)C)C(=O)[C@H](F)Cl)C(=O)N1 [Example 28, (1S)-N-[(1S)-1-[(3S,3aS,6aR)-3-[[[(2R)-2-chloro-2-fluoro-acetyl]-[[(3R,5S)-5-methyl-2-oxo-pyrrolidin-3-yl]methyl]amino]carbamoyl]-3,3a,4,5,6,6a-hexahydro-1H-cyclopenta[c]pyrrole-2-carbonyl]-2,2-dimethyl-propyl]-2,2-difluoro-cyclopropanecarboxamide] | 1160 nM | 74 nM | 30 nM | 492 nM
CC(C)(C)[C@H](NC(=O)[C@@H]1CC1(F)F)C(=O)N1C[C@@H]2CCC[C@@H]2[C@H]1C(=O)NN(C[C@@H]1C(=O)N[C@@H]2C[C@H]12)C(=O)[C@H](F)Cl [Example 38, (1S)-N-[(1S)-1-[(3S,3aS,6aR)-3-[[[(2R)-2-chloro-2-fluoro-acetyl]-[[(1R,4R,5R)-3-oxo-2-azabicyclo[3.1.0]hexan-4-yl]methyl]amino]carbamoyl]-3,3a,4,5,6,6a-hexahydro-1H-cyclopenta[c]pyrrole-2-carbonyl]-2,2-dimethyl-propyl]-2,2-difluoro-cyclopropanecarboxamide] | 398 nM | 54 nM | 27 nM | 134 nM
CC[C@H](C)[C@H](NC(=O)C1(F)CC1)C(=O)N1C[C@H]2[C@@H]([C@H]1C(=O)NN(C[C@H]1CC(C)(C)NC1=O)C(=O)[C@@H](F)Cl)C2(C)C [Example 19, N-[(1S,2S)-1-[(1R,2S,5S)-2-[[[(2S)-2-chloro-2-fluoro-acetyl]-[[(3R)-5,5-dimethyl-2-oxo-pyrrolidin-3-yl]methyl]amino]carbamoyl]-6,6-dimethyl-3-azabicyclo[3.1.0]hexane-3-carbonyl]-2-methyl-butyl]-1-fluoro-cyclopropanecarboxamide] | 553 nM | 32 nM | 19 nM | 834 nM
CC(C)(C)[C@H](NC(=O)[C@@H]1CC1(F)F)C(=O)N1C[C@@H]2CCC[C@@H]2[C@H]1C(=O)NN(C[C@H]1C(=O)N[C@@H]2C[C@@H]21)C(=O)[C@@H](F)Cl [Example 37, (1S)-N-[(1S)-1-[(3S,3aS,6aR)-3-[[[(2S)-2-chloro-2-fluoro-acetyl]-[[(1R,4S,5R)-3-oxo-2-azabicyclo[3.1.0]hexan-4-yl]methyl]amino]carbamoyl]-3,3a,4,5,6,6a-hexahydro-1H-cyclopenta[c]pyrrole-2-carbonyl]-2,2-dimethyl-propyl]-2,2-difluoro-cyclopropanecarboxamide] | 320 nM | 21 nM | 17 nM | 191 nM
C[C@@H]1C[C@@H](CN(NC(=O)[C@@H]2[C@@H]3[C@H](CN2C(=O)[C@@H](NC(=O)[C@@H]2CC2(F)F)C(C)(C)C)C3(C)C)C(=O)[C@@H](F)Cl)C(=O)N1 [Example 34, (1S)-N-[(1S)-1-[(1R,2S,5S)-2-[[[(2S)-2-chloro-2-fluoro-acetyl]-[[(3S,5R)-5-methyl-2-oxo-pyrrolidin-3-yl]methyl]amino]carbamoyl]-6,6-dimethyl-3-azabicyclo[3.1.0]hexane-3-carbonyl]-2,2-dimethyl-propyl]-2,2-difluoro-cyclopropanecarboxamide] | 80 nM | 14 nM | 8 nM | 37 nM
CC(C)(C)[C@H](NC(=O)[C@@H]1CC1(F)F)C(=O)N1C[C@@H]2CCC[C@@H]2[C@H]1C(=O)NN(C[C@H]1C(=O)N[C@H]2C[C@H]21)C(=O)[C@@H](F)Cl [Example 39, (1S)-N-[(1S)-1-[(3S,3aS,6aR)-3-[[[(2S)-2-chloro-2-fluoro-acetyl]-[[(1S,4S,5S)-3-oxo-2-azabicyclo[3.1.0]hexan-4-yl]methyl]amino]carbamoyl]-3,3a,4,5,6,6a-hexahydro-1H-cyclopenta[c]pyrrole-2-carbonyl]-2,2-dimethyl-propyl]-2,2-difluoro-cyclopropanecarboxamide] | 289 nM | 34 nM | 29 nM | 207 nM
CCC(CC)[C@H](NC(=O)C(F)F)C(=O)N1C[C@@H]2CCC[C@@H]2[C@H]1C(=O)NN(C[C@H]1CC(C)(C)NC1=O)C(=O)[C@@H](F)Cl [Example 18, N-[(1S)-1-[(3S,3aS,6aR)-3-[[[(2S)-2-chloro-2-fluoro-acetyl]-[[(3R)-5,5-dimethyl-2-oxo-pyrrolidin-3-yl]methyl]amino]carbamoyl]-3,3a,4,5,6,6a-hexahydro-1H-cyclopenta[c]pyrrole-2-carbonyl]-2-ethyl-butyl]-2,2-difluoro-acetamide] | 345 nM | 23 nM | 12 nM | 332 nM
CC1(C)C[C@H](CN(NC(=O)[C@@H]2[C@@H]3[C@H](CN2C(=O)[C@@H](NC(=O)[C@@H]2CC2(F)F)C(C)(C)C)C3(C)C)C(=O)[C@H](F)Cl)C(=O)N1 [Example 24, (1S)-N-[(1S)-1-[(1R,2S,5S)-2-[[[(2R)-2-chloro-2-fluoro-acetyl]-[[(3R)-5,5-dimethyl-2-oxo-pyrrolidin-3-yl]methyl]amino]carbamoyl]-6,6-dimethyl-3-azabicyclo[3.1.0]hexane-3-carbonyl]-2,2-dimethyl-propyl]-2,2-difluoro-cyclopropanecarboxamide] | 1400 nM | 177 nM | 87 nM | 2250 nM
